In BindingDB's records for doi:10.1021/jm960288w (Drew University, 1997):
pIC50: −log10 of the molar value.

Experiment: Compound was tested for inhibition of [3H]WIN-35428 binding at the dopamine transporter in brain from guinea pig striatal membrane

Structure (SMILES)	pIC50
OC1(c2ccc(Cl)cc2)c2ccccc2C2=NCCCN21 (configuration not stated) [9-(4-Chloro-phenyl)-1,2,3,9-tetrahydro-4,9a-diaza-fluoren-9-ol]	8.38
OC1(c2ccc(Cl)cc2)c2ccccc2C2=NCCCCN21 (configuration not stated) [7-(4-Chloro-phenyl)-2,4,5,7-tetrahydro-3H-[1,3]diazepino[2,1-a]isoindol-7-ol]	8.57
